Molecular target: human ACC2 (Homo sapiens (Human), UniProt O00763)
Assay: ACC2 assay: spectrophotometric 384 well assay (coupled lactate dehydrogenase/pyruvate kinase)
Format: biochemical
Details: hACC2 construct lacking the 128 N-terminal amino acids, 25° C., 340 nm
In short: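 N-terminally truncated human ACC2 from insect cells; ADP formation coupled via pyruvate kinase/lactate dehydrogenase, NADH loss read at 340 nm over 15 min at 25 °C, pH 7.5. Started with NADH, acetyl-CoA and 500 µM ATP; 1% DMSO. IC50 by nonlinear fit of background-subtracted slopes.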

human ACC2, sequence (O00763 129-2458): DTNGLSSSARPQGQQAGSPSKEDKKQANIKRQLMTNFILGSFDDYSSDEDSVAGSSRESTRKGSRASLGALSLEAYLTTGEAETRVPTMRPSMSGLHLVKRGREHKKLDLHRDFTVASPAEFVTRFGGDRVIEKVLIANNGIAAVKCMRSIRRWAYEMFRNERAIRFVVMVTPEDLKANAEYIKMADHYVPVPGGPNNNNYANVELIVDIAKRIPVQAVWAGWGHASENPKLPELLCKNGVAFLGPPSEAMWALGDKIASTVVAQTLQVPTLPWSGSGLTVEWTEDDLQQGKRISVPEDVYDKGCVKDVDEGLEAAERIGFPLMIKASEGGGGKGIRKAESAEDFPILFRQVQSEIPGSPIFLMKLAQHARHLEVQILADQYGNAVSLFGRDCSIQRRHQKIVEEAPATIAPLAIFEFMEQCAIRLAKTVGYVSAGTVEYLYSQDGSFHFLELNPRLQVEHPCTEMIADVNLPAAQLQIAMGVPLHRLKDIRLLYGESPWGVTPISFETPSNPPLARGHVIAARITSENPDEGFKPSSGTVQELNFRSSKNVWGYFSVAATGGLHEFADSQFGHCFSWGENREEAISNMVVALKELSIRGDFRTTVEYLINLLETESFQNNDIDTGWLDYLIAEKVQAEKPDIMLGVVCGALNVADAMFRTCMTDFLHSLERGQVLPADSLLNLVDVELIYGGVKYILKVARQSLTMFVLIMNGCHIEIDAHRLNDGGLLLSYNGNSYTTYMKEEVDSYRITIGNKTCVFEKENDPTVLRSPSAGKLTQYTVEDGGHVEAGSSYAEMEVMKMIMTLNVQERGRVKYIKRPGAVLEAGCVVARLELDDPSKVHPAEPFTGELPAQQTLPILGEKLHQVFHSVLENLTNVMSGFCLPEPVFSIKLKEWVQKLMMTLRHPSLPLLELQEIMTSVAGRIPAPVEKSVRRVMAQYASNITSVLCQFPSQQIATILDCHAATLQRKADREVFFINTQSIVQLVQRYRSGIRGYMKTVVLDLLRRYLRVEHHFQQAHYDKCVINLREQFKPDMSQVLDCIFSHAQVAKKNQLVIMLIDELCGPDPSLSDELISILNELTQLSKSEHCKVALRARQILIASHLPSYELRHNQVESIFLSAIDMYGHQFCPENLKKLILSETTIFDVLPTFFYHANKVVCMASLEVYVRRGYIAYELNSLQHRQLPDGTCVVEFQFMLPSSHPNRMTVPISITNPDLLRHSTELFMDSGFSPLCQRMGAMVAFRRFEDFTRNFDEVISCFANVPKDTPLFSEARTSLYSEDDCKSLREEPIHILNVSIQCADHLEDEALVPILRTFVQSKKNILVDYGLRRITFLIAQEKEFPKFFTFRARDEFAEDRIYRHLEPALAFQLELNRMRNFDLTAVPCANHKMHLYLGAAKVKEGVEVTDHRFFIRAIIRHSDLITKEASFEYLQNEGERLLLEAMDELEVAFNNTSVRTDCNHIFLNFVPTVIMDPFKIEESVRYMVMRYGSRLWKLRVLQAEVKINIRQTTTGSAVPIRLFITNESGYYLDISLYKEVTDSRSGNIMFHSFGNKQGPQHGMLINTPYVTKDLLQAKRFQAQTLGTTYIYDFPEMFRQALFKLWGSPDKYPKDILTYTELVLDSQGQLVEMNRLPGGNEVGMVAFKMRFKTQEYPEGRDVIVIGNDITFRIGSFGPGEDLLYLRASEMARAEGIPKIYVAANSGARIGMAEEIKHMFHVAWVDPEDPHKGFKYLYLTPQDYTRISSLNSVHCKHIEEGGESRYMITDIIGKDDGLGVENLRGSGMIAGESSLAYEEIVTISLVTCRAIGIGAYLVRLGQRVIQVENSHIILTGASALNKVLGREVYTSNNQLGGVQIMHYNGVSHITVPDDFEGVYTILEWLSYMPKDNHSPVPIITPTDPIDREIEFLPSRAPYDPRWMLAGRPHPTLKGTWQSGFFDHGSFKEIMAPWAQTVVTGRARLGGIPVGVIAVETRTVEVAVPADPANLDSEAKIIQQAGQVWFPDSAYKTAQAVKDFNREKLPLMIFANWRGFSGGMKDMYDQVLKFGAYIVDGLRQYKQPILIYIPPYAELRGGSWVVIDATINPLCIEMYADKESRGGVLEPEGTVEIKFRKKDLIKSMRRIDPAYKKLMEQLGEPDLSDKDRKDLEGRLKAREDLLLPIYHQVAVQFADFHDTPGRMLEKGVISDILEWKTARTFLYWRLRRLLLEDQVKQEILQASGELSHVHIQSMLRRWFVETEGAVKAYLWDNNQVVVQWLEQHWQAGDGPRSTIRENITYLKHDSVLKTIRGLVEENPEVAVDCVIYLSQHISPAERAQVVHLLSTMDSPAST

Compound	IC50
CC(=O)N[C@@H](C)c1ccc(CN2Cc3ccc(OCC4CCC4)cc3C(O)C2)cc1 (some centres unmarked) [Example 1.101]	55 nM
CC(=O)NC(C)c1ccc(CN2CCc3c(ccc(OCC4CC4)c3Br)C2)cc1 (centres unmarked) [Example 1.022]	126 nM
COc1c(OC2CCC2)ccc2c1CCN(Cc1ccc([C@H](C)NC(C)=O)cc1)C2C (some centres unmarked) [Example 1.085]	280 nM
CCCOc1ccc2c(c1)CCN(Cc1ccc([C@H](C)NC(=O)C3CC3)cc1)C2 [Example 1.041]	57 nM
COc1c(OCC2CC2)ccc2c1CCN(Cc1ccc([C@H](C)NC(C)=O)cc1)C2C (some centres unmarked) [Example 1.086]	227 nM
CC(=O)NC(C)c1ccc(CN2CCc3cc(OCC(C)C)ccc3C2)cc1 (centres unmarked) [Example 1.009]	102 nM
COc1ccc2c(c1Cl)CCN(Cc1ccc(C(C)NC(C)=O)cc1)C2 (centres unmarked) [Example 1.024]	415 nM
CC(=O)NC(C)c1ccc(CN2CCc3c(ccc(OCC4CC4(F)F)c3Br)C2)cc1 (centres unmarked) [Example 1.031]	76 nM
CC(=O)NC(C)c1ccc(CN2CCc3c(ccc(OCCCF)c3Cl)C2)cc1 (centres unmarked) [Example 1.039]	57 nM
CC(=O)NC(C)c1ccc(CN2CCc3c(cccc3OCC3CC3)C2)cc1 (centres unmarked) [Example 1.006]	878 nM
CC(=O)N[C@@H](C)c1ccc(CN2Cc3ccc(OCC4CC4)cc3C(F)(F)C2)cc1 [Example 1.097]	38 nM
COc1c(OCCC2CC2)ccc2c1CCN(Cc1ccc([C@H](C)NC(=O)C3CC3)cc1)C2 [Example 1.058]	137 nM
CC(=O)N[C@@H](C)c1ccc(CN2Cc3ccc(OC(C)C)cc3C(F)C2)cc1 (some centres unmarked) [Example 1.100]	30 nM
C[C@H](NC(=O)C1CC1)c1ccc(CN2Cc3ccc(OCC4CC4(F)F)cc3C(O)C2)cc1 (some centres unmarked) [Example 1.061]	140 nM
CC(=O)NC(C)c1ccc(CN2CCc3c(ccc4c3OCCO4)C2)cc1 (centres unmarked) [Example 1.029]	228 nM
COc1c(OCC2CC(F)(F)C2)ccc2c1CCN(Cc1ccc([C@H](C)NC(C)=O)cc1)C2C (some centres unmarked) [Example 1.087]	189 nM
CCOc1ccc2c(c1)CCN(Cc1ccc(C(C)NC(C)=O)cc1)C2 (centres unmarked) [Example 1.016]	273 nM
COc1c(OCC2CC2)ccc2c1CCN(Cc1ccc([C@H](C)NC(C)=O)cc1)C2 [Example 1.076]	68 nM
CC(=O)N[C@@H](C)c1ccc(CN2Cc3ccc(OC4CCC4)cc3C(O)C2)cc1 (some centres unmarked) [Example 1.099]	421 nM

Now from value to compound:

IC50	Compound
358 nM	C[C@H](NC(=O)c1ncc[nH]1)c1ccc(CN2Cc3ccc(OCC4CC4)cc3C(F)C2)cc1 (some centres unmarked) [Example 3.033]
249 nM	C[C@H](NC(=O)C1CC1)c1ccc(CN2CCc3c(Br)cccc3C2)cc1 [Example 2.009]
237 nM	COc1cccc2c1CCN(Cc1ccc([C@H](C)NC(=O)C3CC3)cc1)C2 [Example 2.002]
58 nM	CC(=O)N[C@@H](C)c1ccc(CN2CCc3c(cccc3OC3CCC3)C2)cc1 [Example 7.005]
37 nM	CCC(=O)Nc1nc(C)c(C(=O)N[C@@H](C)c2ccc(CN3CCc4cc(OCC5CC5(F)F)ccc4C3)cc2)s1 (some centres unmarked) [Example 3.017]
49 nM	CCNC(=O)N[C@@H](C)c1ccc(CN2Cc3ccc(OCC4CC4)cc3C(F)C2)cc1 (some centres unmarked) [Example 5.007]
28 nM	C[C@H](NC(=O)[C@H]1C[C@H](F)C1)c1ccc(CN2CCc3cc(OCC4CC4(F)F)ccc3C2)cc1 (some centres unmarked) [Example 3.022]
50 nM	C[C@H](NC(=O)C1CC(F)C1)c1ccc(CN2CCc3cc(OCC4CC4(F)F)ccc3C2)cc1 (some centres unmarked) [Example 3.007]
190 nM	COC(=O)C1c2ccc(OCC3CC3)cc2CCN1Cc1ccc([C@H](C)NC(C)=O)cc1 (stereo partly drawn) [Example 9.000, 2-[4-((S)-1-Acetylamino-ethyl)-benzyl]-6-cyclopropylmethoxy-1,2,3,4-tetrahydro-isoquinoline-1-carboxylic acid methyl ester]
59 nM	C[C@H](NC(=O)c1cncs1)c1ccc(CN2Cc3ccc(OCC4CC4)cc3C(F)C2)cc1 (some centres unmarked) [Example 3.048]
29 nM	C[C@H](NC(=O)C(C)(F)F)c1ccc(CN2CCc3cc(OCC4CC4(F)F)ccc3C2)cc1 (some centres unmarked) [Example 3.002]
47 nM	C[C@H](NC(=O)C1CC1)c1ccc(CN2CCc3cc(OCCC4CC4)ccc3C2)cc1 [Example 2.018]
72 nM	C[C@H](NC(=O)C1CCC1)c1ccc(CN2Cc3ccc(OCC4CC4)cc3C(F)C2)cc1 (some centres unmarked) [Example 3.042]
95 nM	C[C@H](NC(=O)Cc1cncnc1)c1ccc(CN2Cc3ccc(OCC4CC4(F)F)cc3C(F)C2)cc1 (some centres unmarked) [Example 3.03]
82 nM	C[C@H](NC(=O)Cc1cncnc1)c1ccc(CN2CCc3cc(OCC4CC4)ccc3C2)cc1 [Example 2.022]
76 nM	CCNC(=O)N[C@@H](C)c1ccc(CN2CCc3cc(OCC4CC4(F)F)ccc3C2)cc1 (stereo partly drawn) [Example 5.001, 1-((S)-1-{4-[6-(2,2-Difluoro-cyclopropylmethoxy)-3,4-dihydro-1H-isoquinolin-2-ylmethyl]-phenyl}-ethyl)-3-ethyl-urea]
62 nM	C[C@H](NC(=O)C1(C#N)CC1)c1ccc(CN2Cc3ccc(OCC4CC4)cc3C(F)C2)cc1 (some centres unmarked) [Example 3.044]
47 nM	C[C@H](NC(=O)CO)c1ccc(CN2Cc3ccc(OCC4CC4)cc3C(F)C2)cc1 (some centres unmarked) [Example 3.059]
155 nM	C[C@H](NC(=O)N(C)C)c1ccc(CN2Cc3ccc(OCC4CC4)cc3C(O)C2)cc1 (some centres unmarked) [Example 5.005]
28 nM	C[C@H](NC(=O)c1cncs1)c1ccc(CN2CCc3cc(OCC4CC4(F)F)ccc3C2)cc1 (some centres unmarked) [Example 3.019]
872 nM	CCNC(=O)N[C@@H](C)c1ccc(CN2Cc3ccc(OCC4CC4)cc3C(O)C2)cc1 (some centres unmarked) [Example 5.006]
446 nM	C[C@H](NC(=O)Cc1cncnc1)c1ccc(CN2CC(=O)c3cc(OCC4CC4)ccc3C2)cc1 [Example 2.044]
52 nM	C[C@H](NC(=O)c1cn[nH]c1)c1ccc(CN2Cc3ccc(OCC4CC4)cc3C(F)C2)cc1 (some centres unmarked) [Example 3.064]
213 nM	C[C@H](NC(=O)[C@H]1CCC(=O)N1)c1ccc(CN2Cc3ccc(OCC4CC4)cc3C(F)C2)cc1 (some centres unmarked) [Example 3.053]
116 nM	COC(=O)N[C@@H](C)c1ccc(CN2Cc3ccc(OCC4CC4)cc3C(F)C2)cc1 (some centres unmarked) [Example 5.009]
